# Test results as given in patent US8293873B2, “Combination of amino acid solution and a gelatin derivative for inhibiting renal up-take” (BioSynthema Inc., priority 2006, dated 2012).
# Tested on: kidney uptake of [177Lu-DOTA0,Tyr3]octreotate
# Assay: Kidney uptake of [177Lu-DOTA0,Tyr3]octreotate measured by NanoSPECT in rats
# Format: in vivo, Male Lewis rats
# Experimental: For reduction of kidney rats were injected with 20 mg Gelofusine, 100 mg lysine or the combination. Kidney uptake was measured by SPECT scans with a […] multi-pinhole camera (NanoSPECT, Bioscan) at 24 h, 5 and 7 days pi. Kidney uptake was quantified by VOI analysis.
smiles,measurement,setting,value
NCCCC[C@H](N)C(=O)O [lysine],"inhibition of kidney uptake of [177Lu-DOTA0,Tyr3]octreotate","24 h pi, 555 MBq, 20 mg Gelofusine, 100 mg lysine or the combination, SPECT VOI analysis",37%±6%
same,reduction of kidney uptake with an overdose of lysine alone,"rats, overdose of lysine alone",did not improve the reduction of the kidney uptake
